Tested on: 349418-098-R-PDC complex spheroid viability
Assay: Anticancer human tumor 349418-098-R-PDC patient-derived lung adenocarcinoma cell line growth inhibition
Conditions: for IC50: curve of first compound; for viability, T/C: stronger effect = lower value
Procedure, shortened: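 Multicellular complex spheroids of tumor cells with human endothelial cells (HUVEC) and mesenchymal stem cells; the LSD1 inhibitor iadademstat was combined with standard-of-care or investigational agents. Top concentration at or near clinical Cmax, half-log dilutions; final DMSO ≤0.25%.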

[1] = second compound 0.1 µM, first compound 0.0316 µM
[2] = second compound 0.1 µM, first compound 0.1 µM
[3] = second compound 0.1 µM, first compound 0.316 µM
[4] = second compound 0.1 µM, first compound 1 µM
[5] = second compound 0.316 µM, first compound 0.0316 µM
[6] = second compound 0.316 µM, first compound 0.1 µM
[7] = second compound 0.316 µM, first compound 0.316 µM
[8] = second compound 0.316 µM, first compound 1 µM
[9] = second compound 1 µM, first compound 0.0316 µM
[10] = second compound 1 µM, first compound 0.1 µM
[11] = second compound 1 µM, first compound 0.316 µM
[12] = second compound 1 µM, first compound 1 µM
[13] = second compound 3.16 µM, first compound 0.0316 µM
[14] = second compound 3.16 µM, first compound 0.1 µM
[15] = second compound 3.16 µM, first compound 0.316 µM
[16] = second compound 3.16 µM, first compound 1 µM
[17] = second compound 10 µM, first compound 0.0316 µM
[18] = second compound 10 µM, first compound 0.1 µM
[19] = second compound 10 µM, first compound 0.316 µM
[20] = second compound 10 µM, first compound 1 µM
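Further: spheroids exposed to agents for seven days before readout.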
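Wherever viability, T/C is given: 100% = DMSO vehicle control wells.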

## CC1COCCN1c1cc(C2(S(C)(=N)=O)CC2)nc(-c2ccnc3[nH]ccc23)n1 (stereo not given) + NC1CC1c1ccc(-c2cccc(O)c2)cc1
Second compound 0.1 µM
  IC50: 1050 nM
Second compound 0.316 µM
  IC50: 1020 nM
Second compound 1 µM
  IC50: 931 nM
Second compound 3.16 µM
  IC50: 1070 nM
Second compound 10 µM
  IC50: 709 nM
[1]
  viability, T/C: 114%
[2]
  viability, T/C: 113%
[3]
  viability, T/C: 111%
[4]
  viability, T/C: 51.8%
Second compound 0.1 µM, first compound 3.16 µM
  viability, T/C: 11.8%
Second compound 0.1 µM, first compound 10 µM
  viability, T/C: 10.9%
[5]
  viability, T/C: 120%
[6]
  viability, T/C: 111%
[7]
  viability, T/C: 104%
[8]
  viability, T/C: 51.2%
Second compound 0.316 µM, first compound 3.16 µM
  viability, T/C: 11.5%
Second compound 0.316 µM, first compound 10 µM
  viability, T/C: 9.93%
[9]
  viability, T/C: 115%
[10]
  viability, T/C: 116%
[11]
  viability, T/C: 115%
[12]
  viability, T/C: 45.6%
Second compound 1 µM, first compound 3.16 µM
  viability, T/C: 13.9%
Second compound 1 µM, first compound 10 µM
  viability, T/C: 10.7%
[13]
  viability, T/C: 118%
[14]
  viability, T/C: 103%
[15]
  viability, T/C: 115%
[16]
  viability, T/C: 52.3%
Second compound 3.16 µM, first compound 3.16 µM
  viability, T/C: 13.3%
Second compound 3.16 µM, first compound 10 µM
  viability, T/C: 9.27%
[17]
  viability, T/C: 91.3%
[18]
  viability, T/C: 94.1%
[19]
  viability, T/C: 86.6%
[20]
  viability, T/C: 34.3%
Second compound 10 µM, first compound 3.16 µM
  viability, T/C: 11.2%
Second compound 10 µM, first compound 10 µM
  viability, T/C: 6.83%

## Nc1ncn(C2CC(O)C(CO)S2)c(=O)n1 (stereo not given) + NC1CC1c1ccc(-c2cccc(O)c2)cc1
Second compound 0.1 µM
  IC50: 25 nM
Second compound 0.316 µM
  IC50: 23.9 nM
Second compound 1 µM
  IC50: 27.9 nM
Second compound 3.16 µM
  IC50: 27.1 nM
Second compound 10 µM
  IC50: 19.5 nM
Second compound 0.1 µM, first compound 0.000949 µM
  viability, T/C: 113%
Second compound 0.1 µM, first compound 0.003 µM
  viability, T/C: 112%
Second compound 0.1 µM, first compound 0.00949 µM
  viability, T/C: 87.1%
Second compound 0.1 µM, first compound 0.03 µM
  viability, T/C: 42.6%
Second compound 0.1 µM, first compound 0.0949 µM
  viability, T/C: 15.4%
Second compound 0.1 µM, first compound 0.3 µM
  viability, T/C: 5.99%
Second compound 0.316 µM, first compound 0.000949 µM
  viability, T/C: 112%
Second compound 0.316 µM, first compound 0.003 µM
  viability, T/C: 106%
Second compound 0.316 µM, first compound 0.00949 µM
  viability, T/C: 93%
Second compound 0.316 µM, first compound 0.03 µM
  viability, T/C: 39%
Second compound 0.316 µM, first compound 0.0949 µM
  viability, T/C: 12.2%
Second compound 0.316 µM, first compound 0.3 µM
  viability, T/C: 6.04%
Second compound 1 µM, first compound 0.000949 µM
  viability, T/C: 117%
Second compound 1 µM, first compound 0.003 µM
  viability, T/C: 107%
Second compound 1 µM, first compound 0.00949 µM
  viability, T/C: 96.8%
Second compound 1 µM, first compound 0.03 µM
  viability, T/C: 46.3%
Second compound 1 µM, first compound 0.0949 µM
  viability, T/C: 13.5%
Second compound 1 µM, first compound 0.3 µM
  viability, T/C: 5.81%
Second compound 3.16 µM, first compound 0.000949 µM
  viability, T/C: 115%
Second compound 3.16 µM, first compound 0.003 µM
  viability, T/C: 115%
Second compound 3.16 µM, first compound 0.00949 µM
  viability, T/C: 96.3%
Second compound 3.16 µM, first compound 0.03 µM
  viability, T/C: 44.6%
Second compound 3.16 µM, first compound 0.0949 µM
  viability, T/C: 17.3%
Second compound 3.16 µM, first compound 0.3 µM
  viability, T/C: 6.89%
Second compound 10 µM, first compound 0.000949 µM
  viability, T/C: 87.2%
Second compound 10 µM, first compound 0.003 µM
  viability, T/C: 81.6%
Second compound 10 µM, first compound 0.00949 µM
  viability, T/C: 75.4%
Second compound 10 µM, first compound 0.03 µM
  viability, T/C: 34.5%
Second compound 10 µM, first compound 0.0949 µM
  viability, T/C: 14.5%
Second compound 10 µM, first compound 0.3 µM
  viability, T/C: 5.54%

## O=C(C=Cn1cnc(-c2cc(C(F)(F)F)cc(C(F)(F)F)c2)n1)NNc1cnccn1 + NC1CC1c1ccc(-c2cccc(O)c2)cc1
Second compound 0.1 µM
  IC50: < 3.16 nM
Second compound 0.316 µM
  IC50: < 3.16 nM
Second compound 1 µM
  IC50: < 3.16 nM
Second compound 3.16 µM
  IC50: < 3.16 nM
Second compound 10 µM
  IC50: < 3.16 nM
Second compound 0.1 µM, first compound 0.00316 µM
  viability, T/C: 21.7%
Second compound 0.1 µM, first compound 0.01 µM
  viability, T/C: 13.6%
[1]
  viability, T/C: 8.69%
[2]
  viability, T/C: 4.58%
[3]
  viability, T/C: 3.21%
[4]
  viability, T/C: 2.82%
Second compound 0.316 µM, first compound 0.00316 µM
  viability, T/C: 23%
Second compound 0.316 µM, first compound 0.01 µM
  viability, T/C: 13.6%
[5]
  viability, T/C: 7.36%
[6]
  viability, T/C: 4.45%
[7]
  viability, T/C: 3.04%
[8]
  viability, T/C: 2.89%
Second compound 1 µM, first compound 0.00316 µM
  viability, T/C: 21.3%
Second compound 1 µM, first compound 0.01 µM
  viability, T/C: 11.7%
[9]
  viability, T/C: 7.13%
[10]
  viability, T/C: 3.94%
[11]
  viability, T/C: 2.88%
[12]
  viability, T/C: 2.59%
Second compound 3.16 µM, first compound 0.00316 µM
  viability, T/C: 22.3%
Second compound 3.16 µM, first compound 0.01 µM
  viability, T/C: 16.3%
[13]
  viability, T/C: 7.41%
[14]
  viability, T/C: 5%
[15]
  viability, T/C: 3.23%
[16]
  viability, T/C: 2.75%
Second compound 10 µM, first compound 0.00316 µM
  viability, T/C: 11.5%
Second compound 10 µM, first compound 0.01 µM
  viability, T/C: 11.2%
[17]
  viability, T/C: 7.71%
[18]
  viability, T/C: 5.06%
[19]
  viability, T/C: 2.95%
[20]
  viability, T/C: 2.62%
